Results from patent publication US10399932B2, “Inhibitors of indoleamine-2,3-dioxygenase for the treatment of cancer” (BRISTOL-MYERS SQUIBB COMPANY, priority 2015, dated 2019).

Target: human IDO1 (Homo sapiens, UniProt P14902)
Test: Assessment of human IDO-1 inhibitory activity in Hela cells (Interferon-gamma activated, Ehrlich reagent, absorbance at 490 nm)
Type: cell-based
Set-up: endogenous in cells; host or cells: HeLa cells stimulated with interferon-gamma
Settings: 18 hours
In short: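 HeLa cells were preincubated with compound for 1 h at 37 °C, then stimulated with human IFN-γ (10 ng/ml final) or murine IFN-γ (5 ng/ml final) for 18 h. Kynurenine was read after TCA (3% final, 50 °C for 30 min) and Ehrlich reagent at A490. For IC50, unstimulated wells were set as 100% inhibition and IFN-γ alone as 0%.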

Sequence of human IDO1 (P14902 whole entry): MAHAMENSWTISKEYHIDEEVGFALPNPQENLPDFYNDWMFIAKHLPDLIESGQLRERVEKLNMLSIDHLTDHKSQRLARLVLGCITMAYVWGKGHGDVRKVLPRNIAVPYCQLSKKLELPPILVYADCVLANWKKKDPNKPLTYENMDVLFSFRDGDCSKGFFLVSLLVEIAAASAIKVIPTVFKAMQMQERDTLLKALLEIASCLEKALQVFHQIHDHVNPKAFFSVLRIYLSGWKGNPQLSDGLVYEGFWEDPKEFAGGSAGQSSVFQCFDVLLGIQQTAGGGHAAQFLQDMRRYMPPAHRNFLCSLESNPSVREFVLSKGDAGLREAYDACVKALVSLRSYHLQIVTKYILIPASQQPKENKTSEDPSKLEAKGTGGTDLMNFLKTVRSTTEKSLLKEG

IC50 [nM]	Compound
> 50	CCOc1ncc(Nc2cc(C(CC(=O)O)C3CC3)ccc2N2C[C@@H](C)O[C@@H](C)C2)cn1 (single isomer, unassigned) [Example 249]
< 50	CCCN(c1ccc(C(CC)CC(=O)O)cc1Nc1cnc(OCC)nc1)C1CCS(=O)(=O)CC1 (single isomer, unassigned) [Example 13 Enantiomer 2, 3-(4-((1,1-Dioxidotetrahydro-2h-thiopyran-4-yl)(propyl)amino)-3-((2-ethoxypyrimidin-5-yl)amino)phenyl)pentanoic acid]
< 50	CCOc1ncc(Nc2cc(C(CC)CC(=O)O)ccc2N(CC)C2CCOC2)cn1 (single isomer, unassigned) [Example 945 D2, 3-(3-((2-Ethoxypyrimidin-5-yl)amino)-4-(ethyl (tetrahydrofuran-3-yl)amino)phenyl)pentanoic acid]
> 50	(R)-3-(4-((1,1-dioxidotetrahydro-2H-thiopyran-4-yl)(ethyl)amino)-3-((2-methoxypyrimidin-5-yl)amino)phenyl)-4-isopropoxybutanoic acid [Example 332]
< 5	CC[C@H](CC(=O)O)c1ccc(N(CC)C2CCOCC2)c(Nc2ccc(C#N)cn2)c1 (single isomer, unassigned) [Example 504]
< 50	CCC1COCCN1c1ccc([C@H](COC)CC(=O)O)cc1Nc1ccc(Cl)cc1 (single isomer, unassigned) [Example 1308]
> 50	CCN(c1ccc([C@@H](COC)CC(=O)O)cc1NC(=O)Nc1ccc(C#N)cc1)C1CCOCC1 [Example 422 E1, (S)-3-(3-(3-(4-Cyanophenyl)ureido)-4-(ethyl(tetrahydro-2H-pyran-4-yl)amino)phenyl)-4-methoxybutanoic acid]
< 5	CCC(CC(=O)O)c1ccc(N(CCOC)C2CCOCC2)c(Nc2ccc(C#N)cc2)c1 (single isomer, unassigned) [Example 1261, 3-(3-((4-cyanophenyl)amino)-4-((2-methoxyethyl)(tetrahydro-2H-pyran-4-yl)amino)phenyl)pentanoic acid]
< 5	CCC(CC(=O)O)c1cc(F)c(N(CC)C2CCOCC2)c(Nc2ccc(C#N)cn2)c1 (single isomer, unassigned) [Example 143, 3-(3-((5-cyanopyridin-2-yl)amino)-4-(ethyl (tetrahydro-2H-pyran-4-yl)amino)-5-fluorophenyl)pentanoic acid]
> 50	CCN(c1ccc(C(COC)CC(=O)O)cc1Nc1ccc(C#N)cc1)C1CCS(=O)(=O)CC1 (single isomer, unassigned) [Example 169, 3-(3-((4-cyanophenyl)amino)-4-((1,1-dioxidotetrahydro-2H-thiopyran-4-yl)(ethyl)amino)phenyl)-4-methoxybutanoic acid]
< 50	COCCN(c1ccc(C(COC)CC(=O)O)cc1Nc1ccc(F)cc1)C1CCOCC1 (single isomer, unassigned) [Example 260, 3-(3-((4-fluorophenyl)amino)-4-((2-methoxyethyl)(tetrahydro-2H-pyran-4-yl)amino)phenyl)-4-methoxybutanoic acid]
> 50	CCOc1ncc(Nc2cc(C(CC)CC(=O)O)ccc2N2CCC(C)CC2)cn1 (single isomer, unassigned) [Example 45, 3-(3-((2-ethoxypyrimidin-5-yl)amino)-4-(4-methylpiperidin-1-yl)phenyl)pentanoic acid]
> 50	COCCN(c1ccc(C(COC)CC(=O)O)cc1NC(=O)Nc1ccc(Cl)cc1F)C1CCOCC1 (single isomer, unassigned) [Example 263, 3-(3-(3-(4-chloro-2-fluorophenyl)ureido)-4-((2-methoxyethyl)(tetrahydro-2H-pyran-4-yl)amino)phenyl)-4-methoxybutanoic acid]
> 50	COCC(CC(=O)O)c1ccc(NC2CCOCC2)c(Nc2ccc(C#N)cc2)c1 (single isomer, unassigned) [Example 928 E2, 3-(3-((4-Cyanophenyl)amino)-4-((tetrahydro-2H-pyran-4-yl)amino)phenyl)-4-methoxybutanoic acid]
> 50	CCC(CC(=O)O)c1ccc(N2CCC(C)CC2)c(Nc2cnc(OC)nc2)c1 (single isomer, unassigned) [Example 44, 3-(3-((2-methoxypyrimidin-5-yl)amino)-4-(4-methylpiperidin-1-yl)phenyl) pentanoic acid]
> 50	CCN(c1ccc(C(C)CC(=O)O)cc1Nc1cnc(OC(C)C)nc1)C1CCOCC1 (single isomer, unassigned) [Example 635, 3-(4-(ethyl(tetrahydro-2H-pyran-4-yl)amino)-3-((2-isopropoxypyrimidin-5-yl)amino)phenyl)butanoic acid]
< 5	CCN(c1ccc(C(CC(=O)O)C2CC2)cc1Nc1ccc(Cl)cc1)C1CCOCC1 (single isomer, unassigned) [Example 33 Enantiomer 2, 3-(3-((4-Chlorophenyl)amino)-4-(ethyl(tetrahydro-2H-pyran-4-yl)amino)phenyl)-3-cyclopropylpropanoic acid]
> 50	CCN(c1c(F)cc(C(COC)CC(=O)O)cc1NC(=O)Nc1ccc(Cl)cc1F)C1CCOCC1 (single isomer, unassigned) [Example 917, 3-(3-(3-(4-Chloro-2-fluorophenyl)ureido)-4-(ethyl(tetrahydro-2H-pyran-4-yl)amino)-5-fluorophenyl)-4-methoxybutanoic acid]
< 50	CCC(CC(=O)O)c1ccc(N(CC)C2CCOC2)c(NC(=O)Nc2ccc(Cl)cc2F)c1 (single isomer, unassigned) [948 D2]
< 5	CCC(CC(=O)O)c1cc(F)c(N(CC)C2CCOCC2)c(Nc2ccc(Cl)cc2)c1 (single isomer, unassigned) [Example 144, 3-(3-((4-chlorophenyl)amino)-4-(ethyl (tetrahydro-2H-pyran-4-yl)amino)-5-fluorophenyl)pentanoic acid]
< 5	COCCN(c1ccc(C(COC)CC(=O)O)cc1Nc1ccc(Cl)cc1)C1CCOCC1 (single isomer, unassigned) [Example 256 Enantiomer 2, 3-(3-((4-Chlorophenyl)amino)-4-((2-methoxyethyl)(tetrahydro-2H-pyran-4-yl)amino)phenyl)-4-methoxybutanoic acid]
< 5	CCN(c1cc(F)c([C@@H](COC)CC(=O)O)cc1Nc1ccc(Cl)cc1)C1CCOCC1 (stereo in doubt) [Example 851, 3-(5-((4-chlorophenyl)amino)-4-(ethyl(tetrahydro-2H-pyran-4-yl)amino)-2-fluorophenyl)-4-methoxybutanoic acid]
> 50	CCC1COCCN1c1ccc([C@H](COC)CC(=O)O)cc1Nc1ccc(C#N)cn1 (single isomer, unassigned) [Example 1305]
